Test results: patent US20260209152A1, “Substituted Hydroxystilbene Compounds and Derivatives, Synthesis and Uses Thereof” (Kynan Duke IP, LLC, priority 2019, published 2026)
Where two headings read alike, the source gives them in different places.

What was measured:
Format in all cases: cell-based, human
[1] = system: Cancer cells including pancreatic, bladder, kidney, colon, breast, lung, liver and osteosarcomas; test: CellTiter Glo cell viability assay, panel of cancer cell lines
Summary of the method: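 Cells (1.7*10^3/well) were seeded in quadruplicate and treated with 2-fold dilutions over 18 concentrations up to 5 μM, or with 1, 2, 5, 10 and 20 μM. Viability was read by CellTiter Glo luminescence on days 1, 3 and 5; half-maximal concentrations came from nonlinear regression of RLU versus log dose.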

Lung NCI-H2126 = test: CellTiter Glo cell viability assay; details: Homo sapiens
Summary of the method: (§1)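 Cells seeded at 1.7*10^3/well in quadruplicate; compounds at 18 two-fold dilutions from 5 μM (0.000038146-5 μM), or at 1, 2, 5, 10 and 20 μM. CellTiter Glo luminescence read on days 1, 3 and 5 after treatment. IC50 by nonlinear regression of luminescence versus log dose.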

Pancreatic BxPC3 = test: CellTiter Glo cell viability assay; details: Homo sapiens
Summary of the method: as §1

Osteosarcomas SAOS-2 = test: CellTiter Glo cell viability assay; details: Homo sapiens
Summary of the method: as §1

Pharynx DETROIT = test: CellTiter Glo cell viability assay; details: Homo sapiens
Summary of the method: as §1

Lung NCI-H1437 = test: CellTiter Glo cell viability assay; details: Homo sapiens
Summary of the method: as §1

Tongue SCC-4 = test: CellTiter Glo cell viability assay; details: Homo sapiens
Summary of the method: as §1

Bladder UMUC_3 = test: CellTiter Glo cell viability assay; details: Homo sapiens
Summary of the method: as §1

Bladder T24 = test: CellTiter Glo cell viability assay; details: Homo sapiens
Summary of the method: as §1

Pancreatic HPAFII = test: CellTiter Glo cell viability assay; details: Homo sapiens
Summary of the method: as §1

Tongue UPCI: SCC090 = test: CellTiter Glo cell viability assay; details: Homo sapiens
Summary of the method: as §1

Pancreatic PANC-1 = test: CellTiter Glo cell viability assay; details: Homo sapiens
Summary of the method: as §1

[2] = system: Hypo-pharynx UPCI: SCC152; test: CellTiter Glo cell viability assay; details: Homo sapiens
Summary of the method: as §1

Bladder HT-1197 = test: CellTiter Glo cell viability assay; details: Homo sapiens
Summary of the method: as §1

Bladder SCABER = test: CellTiter Glo cell viability assay; details: Homo sapiens
Summary of the method: as §1

Pharynx FADU = test: CellTiter Glo cell viability assay; details: Homo sapiens
Summary of the method: as §1

Liver SNU-398 = test: CellTiter Glo cell viability assay; details: Homo sapiens
Summary of the method: as §1

Liver HepG2 = test: CellTiter Glo cell viability assay; details: Homo sapiens
Summary of the method: as §1

[3] = 72 h, 3 Days of treatment, 18 2-fold dilutions 5-0.00003 μM, read-out: Average IC50

SMILES: COc1cc(/C=C/c2cc(O)cc(OC)c2CC=C(C)C)ccc1O [Compound 1, (E)-3-(4-hydroxy-3-methoxystyryl)-5-methoxy-4-(3-methylbut-2-en-1-yl)phenol]
- Effect on cell viability on Day 1 ([1]; Day 1 upon treatment at dosages <1 μM): neither 1 nor 8 affect cell viability
- IC50 ([1]; Homo sapiens, comparative study on 83 cancer cell lines (Table 3), read-out: IC50 values in the range, towards the cell lines listed in the text): 10 to 100 nM
- IC50 (Lung NCI-H2126; NCI-H2126, 72 h, 3 Days of treatment, 18 2-fold dilutions 5-0.00003 μM, read-out: Average IC50): 75.4 nM
- IC50 (Lung NCI-H2126; NCI-H2126/CCL-256, 11 dilutions 3-0.00001 μM, read-out: IC50): 106 nM
- IC50 (Pancreatic BxPC3; BXPC-3, 72 h, 3 Days of treatment, 18 2-fold dilutions 5-0.00003 μM, read-out: Average IC50): 1060 nM
- IC50 (Pancreatic BxPC3; BxPC-3/CRL-1687, 11 dilutions 3-0.00001 μM, read-out: IC50): 944 nM
- IC50 (Osteosarcomas SAOS-2; SAOS-2, 72 h, 3 Days of treatment, 18 2-fold dilutions 5-0.00003 μM, read-out: Average IC50): 110 nM
- IC50 (Osteosarcomas SAOS-2; Saos-2/HTB-85, 11 dilutions 3-0.00001 μM, read-out: IC50): 173 nM
- IC50 (Pharynx DETROIT; [3]): 1170 nM
- IC50 (Pharynx DETROIT; Detroit 562/CCL-138, 11 dilutions 3-0.00001 μM, read-out: IC50): 131 nM
- IC50 (Lung NCI-H1437; NCI-H1437, 72 h, 3 Days of treatment, 18 2-fold dilutions 5-0.00003 μM, read-out: Average IC50): 347 nM
- IC50 (Lung NCI-H1437; NCI-H1437/CRL-5872, 11 dilutions 3-0.00001 μM, read-out: IC50): 143 nM
- IC50 (Tongue SCC-4; SCC-4, 72 h, 3 Days of treatment, 18 2-fold dilutions 5-0.00003 μM, read-out: Average IC50): 100 nM
- IC50 (Tongue SCC-4; SCC-4/CRL-1624, 11 dilutions 3-0.00001 μM, read-out: IC50): 39.5 nM
- IC50 (Bladder UMUC_3; UMUC3, 72 h, 3 Days of treatment, 18 2-fold dilutions 5-0.00003 μM, read-out: Average IC50): 31.3 nM
- IC50 (Bladder UMUC_3; UMUC3, UM-UC-3/CRL-1749, 11 dilutions 3-0.00001 μM, read-out: IC50): 333 nM
- IC50 (Bladder T24; [3]): 129 nM
- IC50 (Bladder T24; T24/HTB-4, 11 dilutions 3-0.00001 μM, read-out: IC50): 182 nM
- IC50 (Pancreatic HPAFII; HPAF-II, 72 h, 3 Days of treatment, 18 2-fold dilutions 5-0.00003 μM, read-out: Average IC50): 1070 nM
- IC50 (Pancreatic HPAFII; HPAF-II/CRL-1997, 11 dilutions 3-0.00001 μM, read-out: IC50): 417 nM
- IC50 (Tongue UPCI: SCC090; [3]): 90.1 nM
- IC50 (Tongue UPCI: SCC090; UPCI: SCC090/CRL-3239, 11 dilutions 3-0.00001 μM, read-out: IC50): 0.9 nM
- IC50 (Pancreatic PANC-1; PANC-1, 72 h, 3 Days of treatment, 18 2-fold dilutions 5-0.00003 μM, read-out: Average IC50): 107 nM
- IC50 (Pancreatic PANC-1; PANC-1/CRL-1469, 11 dilutions 3-0.00001 μM, read-out: IC50): 110 nM
- IC50 [2, 3]: 46.3 nM
- IC50 ([2]; UPCI: SCC152/CRL-3240, 11 dilutions 3-0.00001 μM, read-out: IC50): 140 nM
- IC50 (Bladder HT-1197; HT1197, 72 h, 3 Days of treatment, 18 2-fold dilutions 5-0.00003 μM, read-out: Average IC50): 258 nM
- IC50 (Bladder HT-1197; HT1197, HT-1197/CRL-1473, 11 dilutions 3-0.00001 μM, read-out: IC50): 108 nM
- IC50 (Bladder SCABER; SCaBER, 72 h, 3 Days of treatment, 18 2-fold dilutions 5-0.00003 μM, read-out: Average IC50): 33.7 nM
- IC50 (Bladder SCABER; SCaBER/HTB-3, 11 dilutions 3-0.00001 μM, read-out: IC50): 65 nM
- IC50 (Pharynx FADU; FaDu, 72 h, 3 Days of treatment, 18 2-fold dilutions 5-0.00003 μM, read-out: Average IC50): 74.4 nM
- IC50 (Pharynx FADU; Fadu/HTB-43, 11 dilutions 3-0.00001 μM, read-out: IC50): 139 nM
- IC50 (Liver SNU-398; SNU-398, 72 h, 3 Days of treatment, 18 2-fold dilutions 5-0.00003 μM, read-out: Average IC50): 42.9 nM
- IC50 (Liver SNU-398; SNU-398/CRL-2233, 11 dilutions 3-0.00001 μM, read-out: IC50): 208 nM
- IC50 (Liver HepG2; HepG2, 72 h, 3 Days of treatment, 18 2-fold dilutions 5-0.00003 μM, read-out: Average IC50): 212 nM
- IC50 (Liver HepG2; HepG2, Hep G2/HB-8065, 11 dilutions 3-0.00001 μM, read-out: IC50): 577 nM
